These results are taken from US9668967B2, “Lipid formulations comprising a thiolated antioxidant” (CAMURUS AB, priority 2008, dated 2017).

Each structure is given as a SMILES string.

Data set [1] is described as follows: Exploratory stability study of glucagon lipid formulations, 25° C./60% RH for 7 days (NP HPLC). Format: physicochemical. As to conditions: for assayed GLU content as % of initial (time zero) GLU content (FIG. 3): antioxidant 0.3 wt % (BHT 0.1 wt %), compared with antioxidant-free control. On the procedure:
To prevent breakdown of glucagon resulting from oxidation of the methionine residue (giving Met(O)27glucagon), an antioxidant may be included in the compositions of the present invention. To establish the most suitable antioxidant, various common and less common antioxidants were tested in the peptide/lipid system of the present invention.
Note that the antioxidant content in the respective formulations, except for the reference formulations (#229 and #234), was 0.3 wt % for tocopherol (α-TOC), acsorbyl palmitate (AscPalm) and mono-thioglycerol (MTG) and 0.1 wt % for butyl hydroxytoluene (BHT). Samples containing MTG were #233 and 235.
In FIG. 3, the assayed GLU content after storage at 25° C./60% RH for 7 days is plotted as the % of initial (time zero) GLU content.
Because the assay is based on a normal phase (NP) HPLC column, degradation products with RR<1 are more hydrophobic compared with GLU whereas more hydrophilic degradation products give RR>1.

Data set [2] can be described thus: Hydrogen peroxide stress test of buprenorphine lipid formulations (HPLC). Format: physicochemical. On the procedure: Lipid formulations of BUP also containing antioxidant were prepared in the following way: First, a liquid lipid stock solution of SPC/GDO/EtOH/antioxidant (or a reference stock solution without antioxidant) in the required proportions were prepared by weighing of all components into glass vials followed by mixing by end-over-end rotation for about 8 h or until completely homogenous liquids were obtained. Thereafter, BUP (powder) was added to achieve a nominal concentration of 7.9 wt % in all cases. The antioxidants were added in an amount corresponding to common previous use in pharmaceutical products.
The following stress test was performed to evaluate the effect of the four different antioxidants (Table 1): Oxidative degradation was induced by adding 20 μL, H2O2 (30%)/mL formulation followed by equilibration of the formulations for 48 hours at RT (dark). Analysis of BUP and any oxidation degradation product (DP) in the formulations was performed by HPLC (reversed phase column) with UV detection at 288 nm.
The protective effect of different MTG concentrations was assessed by performing a stress test according to Example 1. […] The formulations were thereafter analysed by HPLC as described in Example 1 and the relative area % of the main oxidation degradation product (DP) peak (relative retention RR=1.053) was determined.

Where [3] appears, read: storage at 25° C./60% RH for 7 days.

As for `CCCCCCCCCCCCCCCC(=O)OC[C@H](O)[C@H]1OC(=O)C(O)=C1O` [AscPalm, acsorbyl palmitate, reference compound], the “assayed GLU content as % of initial (time zero) GLU content (FIG. 3)” value in data set [1] (setting [3]) is “degrading of glucagon”.

For `OCC(O)CS` (stereo not drawn) [MTG, Mono-thioglycerol], the “suppressing the oxidative degradation of glucagon” value in data set [1] (compared with other lipid soluble antioxidants) is given as “more efficient than other lipid soluble antioxidants”. Moreover, in data set [1] (setting [3]), the “formation of Met(O)27glucagon (degradation products with RR>1, % Total Area, FIG. 4)” value is recorded as “most efficient” and the “assayed GLU content as % of initial (time zero) GLU content (FIG. 3)” value is “best oxidation protection”. In addition, in data set [2] (H2O2 treated formulations, Table 2), the “protecting BUP from oxidation degradation in the lipid formulation, compared with reference formulation” value is “clearly superior”. The “protective effect of different MTG concentrations on main oxidation DP (FIG. 1)” value in data set [2] (MTG 0-1.0 wt % in BUP/SPC/GDO/EtOH=7.9/41.1/41.1/10.0 wt %, H2O2, 48 hours at RT (dark)) was “significant protective effect”.
